Assays:
[1] = molecular target: T1, Human erythrocyte 20S proteasome (Homo sapiens, UniProt P28074); experiment: In vitro enzymatic assay of proteasome inhibitory activity (Suc-Leu-Leu-Val-Tyr-AMC substrate); type: biochemical; details: for inhibition at 0.05 µM: Concentration 50 nM; for IC50: human erythrocyte 20S proteasome, 10 µM Suc-Leu-Leu-Val-Tyr-AMC, 37°C
T1 construct: Enzyme: Human erythrocyte 20S proteasome; from tissue; host or cells: human erythrocytes
Experimental: Example 20: In vitro enzymatic assay of proteasome inhibitory activity.
Substrate: Suc-Leu-Leu-Val-Tyr-AMC
Assay buffer: 250 mM HEPES, pH 7.5, 0.5 mM EDTA, 0.03% SDS, 0.05% Igepal CA-630.
Enzyme: Human erythrocyte 20S proteasome
In vitro proteasome inhibitory activity of the compounds of the invention is evaluated by spectrofluorimetric quantitation of AMC. Stock solutions of compounds of the invention are prepared in dimethyl sulphoxide (DMSO). Test compound and/or vehicle is preincubated with […] enzyme (human erythrocyte 20S proteasome) in modified HEPES buffer pH 7.5 and 1% final concentration of DMSO for 15 minutes at 37°C. The reaction is initiated by addition of 10 µM Suc-Leu-Leu-Val-Tyr-AMC for another 30 minutes incubation period at 37°C. Determination of the release of AMC is read spectrophotometrically (excitation, 380 nm; emission, 460 nm). IC50 values are determined by a non-linear, least squares regression analysis using MathlQTM (ID Business Solutions Ltd., UK).

[2] = system: Daoy; experiment: Cancer cell growth inhibition, 72 h treatment; type: cell-based; details: Homo sapiens, Brain Daoy, Alamar Blue
Experimental: (§1) Cell culture-based assays were used to evaluate the ability of compounds of the invention to inhibit cancer cell growth.
(§2) Cells were obtained from the American Type Culture Collection (ATCC) and the European Collection of Cell Cultures. Cells were thawed in their appropriate media plus supplements (see table below). Cells were passaged at confluence by washing once in HBSS cation-free followed by a 3 minutes incubation with trypsin ([0.5 µg/ml]/EDTA [0.2 µg/ml]) (Gibco-BRL, 15400054) solution in HBSS at 37°C (except non-adherent cell lines - hematologic), and transferred to their appropriate media plus supplements. Prior to seeding at defined cell concentration, cells were recovered in medium, centrifuged, taken up in medium and counted.
(§3) All treatments were performed in triplicate. Experiments were carried out in 96-well cell culture plates (Cultek) and the cell lines seeded at the density mentioned in the table above and cultured at 37°C with 5% CO2. After 24h, media were supplemented by 100 µl/well of diluted test compound at variable final concentrations and incubated for 72 hours. Then, AlamarBlue® Reagent (Biosource DAL1100) was added to each well and incubated at 37°C for 4 hours. Relative fluorescent intensity that correlates with the number of living cells was read in a Cytofluor plate reader (Millipore) at 535/590 nm (Excitation/emission). After reading the AlamarBlue® signal, the hexosaminidase activitity was measured according to the following protocol: medium was removed and cells were washed once with PBS. 60 µl of substrate solution (p-nitrophenol-N-acetyl-beta-D-glucosaminide 7.5 mM [Sigma N-9376], sodium citrate 0.1 M, pH 5.0, 0.25% Triton X-1 00) was added to each well and incubated at 37°C for 1-2 hours; after this incubation time, a bright yellow colour appears; then, plates could be developed by adding 90 µl of developer solution (Glycine 50 mM, pH 10.4; EDTA 5 mM), and absorbance was recorded at 405 nm.
(§4) Note: In all cases assays were performed in Alamar Blue with the exception of those indicated (* = Hexosaminidase assay)

[3] = system: Jurkat; experiment: Cancer cell growth inhibition, 72 h treatment; type: cell-based; details: Homo sapiens, Hematologic Jurkat, Alamar Blue
Experimental: as §1, §2, §3, §4

[4] = system: MCF-7; experiment: Cancer cell growth inhibition, 72 h treatment; type: cell-based; details: Homo sapiens, MCF7, Breast cancer MCF-7, Alamar Blue
Experimental: as §1, §2, §3, §4

[5] = system: MDA-MB-435; experiment: Cancer cell growth inhibition, 72 h treatment; type: cell-based; details: Homo sapiens, Melanoma MDA-MB-435, Alamar Blue
Experimental: as §1, §2, §3, §4

[6] = system: MIA PaCa-2; experiment: Cancer cell growth inhibition, 72 h treatment; type: cell-based; details: Homo sapiens
Experimental: as §1, §2, §3, §4

[7] = system: RAMOS; experiment: Cancer cell growth inhibition, 72 h treatment; type: cell-based; details: Homo sapiens, Hematologic RAMOS, Alamar Blue
Experimental: as §1, §2, §3, §4

[8] = system: RWP-1; experiment: Cancer cell growth inhibition, 72 h treatment; type: cell-based
Experimental: as §1, §2, §3, §4

[9] = system: SK-BR-3; experiment: Cancer cell growth inhibition, 72 h treatment; type: cell-based; details: Homo sapiens
Experimental: as §1, §2, §3, §4

[10] = system: SK-Mel-28; experiment: Cancer cell growth inhibition, 72 h treatment; type: cell-based; details: Homo sapiens, Melanoma SK-Mel-28, Alamar Blue
Experimental: as §1, §2, §3, §4

[11] = system: PANC-1; experiment: Cancer cell growth inhibition, 72 h treatment; type: cell-based; details: Homo sapiens, Pancreatic cancer PANC-1, Alamar Blue
Experimental: as §1, §2, §3, §4

[12] = Pancreatic cancer MIA PaCa-2, Alamar Blue
[13] = Pancreatic cancer RWP-1, Alamar Blue
[14] = Breast cancer SK-BR-3, Alamar Blue

inhibition at 0.05 µM [1] [%]	IC50 [1] [nM]	EC50 [2] [nM]	EC50 [3] [nM]	EC50 [4] [nM]	EC50 [5] [nM]	EC50 [6, 12] [nM]	EC50 [7] [nM]	EC50 [8, 13] [nM]	EC50 [9, 14] [nM]	EC50 [10] [nM]	EC50 ([6]; Pancreatic cancer MIA PaCa-2, Hexosaminidase assay (*)) [nM]	EC50 [11] [nM]	inhibition at 0.1 µM ([1]; Concentration 100 nM) [%]	EC50 ([8]; Pancreatic cancer RWP-1, Hexosaminidase assay (*)) [nM]	inhibition at 0.5 µM ([1]; Concentration 500 nM) [%]	EC50 ([9]; Breast cancer SK-BR-3, Hexosaminidase assay (*)) [nM]	SMILES
51	46	1300	1700	23000	370	3000	1000	3600	760	780	–	–	–	–	–	–	CC(C)C[C@H](NC(=O)[C@H]1N[C@@H](c2ccccc2)[C@@H]([N+](=O)[O-])[C@@H]1c1ccccc1)B(O)O [Example 4, (R)-3-methyl-1-((2S,3R,4S,5S)-4-nitro-3,5-diphenylpyrrolidine-2-carboxamido)butylboronic acid]
81	7.55	290	40	280	170	–	160	420	110	800	850	580	–	–	–	–	CC(C)C[C@H](NC(=O)[C@@H]1N[C@H](c2ccccc2)[C@@H]([N+](=O)[O-])[C@@H]1c1ccco1)B(O)O [Example 11, (R)-1-((2R,3R,4S,5R)-3-(furan-2-yl)-4-nitro-5-phenylpyrrolidine-2-carboxamido)-3-methylbutylboronic acid]
50	46	570	800	1300	210	1900	500	–	570	620	–	–	–	–	–	–	CC(C)C[C@H](NC(=O)[C@@H]1N[C@H](c2ccc3ccccc3c2)[C@@H]([N+](=O)[O-])[C@@H]1c1ccccc1)B(O)O [Example 12, (R)-3-methyl-1-((2R,3R,4S,5R)-5-(naphthalen-2-yl)-4-nitro-3-phenylpyrrolidine-2-carboxamido)butylboronic acid]
–	39	1300	2500	700	1000	5700	2400	–	1200	1300	–	–	73	24000	–	–	CC(C)C[C@H](NC(=O)[C@@H]1N[C@H](c2ccccc2)[C@@H]([N+](=O)[O-])[C@@H]1c1ccccc1)B(O)O [Example 1, (R)-3-methyl-1-((2R,3R,4S,5R)-4-nitro-3,5-diphenylpyrrolidine-2-carboxamido)butylboronic acid]
79	12	780	80	490	310	2400	530	1100	440	1600	–	3000	–	–	–	–	CC(C)C[C@H](NC(=O)[C@@H]1N[C@H](c2ccccc2)[C@@H]([N+](=O)[O-])[C@@H]1c1cccs1)B(O)O [Example 10, (R)-3-methyl-1-((2R,3R,4S,5R)-4-nitro-5-phenyl-3-(thiophen-2-yl)pyrrolidine-2-carboxamido)butylboronic acid]
–	–	41000	4700	30000	5300	22000	8700	–	6200	10000	–	–	–	–	25	–	CC(C)C[C@H](NC(=O)[C@@H]1CCCN1)B(O)O [MG-319, {(R)-3-methyl-1-[(S)-pyrrolidine-2-carboxamido]butyl}boronic acid, reference compound]
70	17	3700	2000	1900	1100	83000	2400	4400	–	13000	–	14000	–	–	–	6000	CC(C)C[C@H](NC(=O)[C@@H]1N[C@H](c2ccccc2)[C@@H]([N+](=O)[O-])[C@@H]1c1ccc(F)cc1)B(O)O [Example 6, (R)-1-((2R,3R,4S,5R)-3-(4-fluorophenyl)-4-nitro-5-phenylpyrrolidine-2-carboxamido)-3-methylbutylboronic acid]

Source: patent publication EP2910557A1, “Enantiopure tetrasubstituted pyrrolidines as scaffolds for proteasome inhibitors and medicinal applications thereof” (Ikerchem, S.L., priority 2014, dated 2015)
